Results on 5 compounds are retold here after publication PMC10785800, “Molecular Basis for Inhibition of Heparanases and β-Glucuronidases by Siastatin B” (Journal of the American Chemical Society, 2023).

Read-outs that look alike come from different tables or passages of the source.

Data set [1] has as its target T1, Acidobacterium capsulatum β-glucuronidase (AcGH79) (Acidobacterium capsulatum, UniProt C1F2K5).
T1 sequence (C1F2K5 1-475): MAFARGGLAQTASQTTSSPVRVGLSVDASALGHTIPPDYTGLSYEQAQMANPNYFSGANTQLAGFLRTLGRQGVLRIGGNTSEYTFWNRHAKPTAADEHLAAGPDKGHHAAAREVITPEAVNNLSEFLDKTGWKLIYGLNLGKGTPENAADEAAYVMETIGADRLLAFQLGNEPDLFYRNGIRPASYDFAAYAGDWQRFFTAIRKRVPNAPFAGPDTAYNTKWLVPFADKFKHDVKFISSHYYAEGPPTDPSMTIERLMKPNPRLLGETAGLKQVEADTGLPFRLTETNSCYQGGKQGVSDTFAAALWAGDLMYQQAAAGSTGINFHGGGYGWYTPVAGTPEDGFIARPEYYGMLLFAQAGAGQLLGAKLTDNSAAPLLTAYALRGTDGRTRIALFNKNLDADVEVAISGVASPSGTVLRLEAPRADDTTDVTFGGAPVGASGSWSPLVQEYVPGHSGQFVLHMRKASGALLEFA
As to the kind of experiment: Inhibition of AcGH79 hydrolysis of 4-methylumbelliferyl glucuronide (MU-GlcUA). It counts as biochemical. The source says:
(§1) To assess the potency of the synthesized 1-N-iminosugars, we first turned to the exo-acting β-glucuronidases AcGH79 and EcGusB, whose activity can be readily monitored with the use of the fluorogenic substrate 4-methylumbelliferyl glucuronide (MU-GlcUA). As these β-glucuronidases belong to different families–AcGH79 to the GH79 family and EcGusB to the GH2 family[46]—assessing inhibition with these enzymes also gives some insights into the applicability of these molecules. All four synthesized compounds (8–11) are able to inhibit both enzymes (see Table 1, Figures S5 and S6).
Figure S5. Inhibition kinetics of AcGH79 treated with synthetic inhibitors. The inhibition constants for AcGH79 treated with A) 11, B) 9, C) 10, and D) 8 were determined. Michaelis-Menten saturation curves were determined in the presence of various concentration of inhibitor (left panel). These curves were fit to a hyperbolic equation, resulting in a Michaelis constant (KM). The KM values were then plotted against the inhibitor concentration (right panel). A linear fit of this plot was then used to determine the inhibition constant (KI).
(§2) Initial rates were determined for AcGH79 and EcGusB hydrolysis of 4-methylumbelliferyl glucuronide in the presence of varying concentrations either commercial or HPLC purified siastatin B to determine inhibitory IC50 concentrations. Reactions contained 20 mM NaCl, 1 % BSA, 60 mM McIllvane Buffer pH 5.0 and 500 µM 4-methylumbelliferyl glucuronide and 0 – 400 µM siastatin B. Assays were initiated by the addition of enzyme to a final concentration of 2 nM. Fluorescence was monitored using a Clariostar plate reader using an excitation wavelength of 365 nm and emission wavelength of 450 nm.
(§3) Assays were performed in quadruplicate and the variation of initial rates with inhibitor concentration […]
(§4) were fit to the Hill equation: with the software program Origin 2019. A=Amax( kn+ [I]n) To determine inhibition constant (Ki) values, Michaelis-Menten parameters were determined for AcGH79 and EcGusB hydrolysis of 4-methylumbelliferyl glucuronide in reactions containing one of the inhibitors 8, 9, 10 or 11. Assays were initiated by the addition of enzyme to the assay mix containing 0-1 mM 4-methylumbelliferyl glucuronide, 20 mM NaCl, 0.1 % BSA, 60 mM McIllvane Buffer pH
(§5) 5.0. Fluorescence was monitored as above. Michaelis constants were determined for at least 3 different inhibitor concentrations for each different inhibitor. Inhibition constants were calculated according to a competitive inhibition model for both inhibitors using the equation : . All K= K(1+ [I]) […]
(§6) kinetic parameters were fit with the software program Origin 2019. […]
(§7) The Journal of Organic Chemistry 2005, 70, 5207-5214.
(§8) Nat Struct Mol Biol 2015, 22 (12), 1016-1022.
(§9) (7) Winter, G. xia2: an expert system for macromolecular crystallography data reduction. Journal of […]

Data set [2] can be described thus: Stability of siastatin B by 1H NMR. In kind it is physicochemical. As for the experimental part: To determine how siastatin B inhibits β-glucuronidases, we first sought to determine whether inhibition was due to the presence of contaminants from either the commercial material or degradation products resulting from prolonged incubation in an aqueous solution or in the presence of a β-glucuronidase.
Supplemental Figures and Tables
Figure S1. Stability of siastatin B. A) 1H NMR experiment showing siastatin B (2 mg) in D2O phosphate buffer (50 mM, 300 mM NaCl, pH 5.0), taken for two different time points (t=0 min and after 18 h). B) Prolonged incubation of siastatin B with recombinant human heparanase. 1H NMR spectra were taken before and after prolonged incubation with 1.2 µM of recombinant human heparanase. The x-axis of […]
(§10) (1 picture or pasted object on this page, not shown here)

Data set [3] concerns the target T2, E. coli β-glucuronidase (EcGusB) (Escherichia coli, UniProt P05804).
T2 construct: made in house; host or cells: E. coli BL21 Gold (DE3)
Nature of the data set: Inhibition of EcGusB hydrolysis of 4-methylumbelliferyl glucuronide (MU-GlcUA). The settings on record: for Ki: fluorogenic substrate MU-GlcUA, McIllvane buffer pH 5.0, competitive inhibition model. It counts as biochemical.
Source text: as §1
Figure S6. Inhibition kinetics of EcGusB treated with synthetic inhibitors. The inhibition constants for EcGusB treated with A) 11, B) 9, C) 10, and D) 8 were determined. Michaelis-Menten saturation curves were determined in the presence of various concentration of inhibitor (left panel). These curves were fit to a hyperbolic equation, resulting in a Michaelis constant (KM). The KM values were then plotted against the inhibitor concentration (right panel). A linear fit of this plot was then used to determine the inhibition constant (KI).
as §10, §2, §3, §4, §5, §6, §7, §8, §9

Data set [4] has as its target T3, human β-glucuronidase (HsGUSB) (Homo sapiens, UniProt P08236).
T3 construct: endogenous in cells; host or cells: human platelets (lysate)
T3 sequence (P08236 23-651): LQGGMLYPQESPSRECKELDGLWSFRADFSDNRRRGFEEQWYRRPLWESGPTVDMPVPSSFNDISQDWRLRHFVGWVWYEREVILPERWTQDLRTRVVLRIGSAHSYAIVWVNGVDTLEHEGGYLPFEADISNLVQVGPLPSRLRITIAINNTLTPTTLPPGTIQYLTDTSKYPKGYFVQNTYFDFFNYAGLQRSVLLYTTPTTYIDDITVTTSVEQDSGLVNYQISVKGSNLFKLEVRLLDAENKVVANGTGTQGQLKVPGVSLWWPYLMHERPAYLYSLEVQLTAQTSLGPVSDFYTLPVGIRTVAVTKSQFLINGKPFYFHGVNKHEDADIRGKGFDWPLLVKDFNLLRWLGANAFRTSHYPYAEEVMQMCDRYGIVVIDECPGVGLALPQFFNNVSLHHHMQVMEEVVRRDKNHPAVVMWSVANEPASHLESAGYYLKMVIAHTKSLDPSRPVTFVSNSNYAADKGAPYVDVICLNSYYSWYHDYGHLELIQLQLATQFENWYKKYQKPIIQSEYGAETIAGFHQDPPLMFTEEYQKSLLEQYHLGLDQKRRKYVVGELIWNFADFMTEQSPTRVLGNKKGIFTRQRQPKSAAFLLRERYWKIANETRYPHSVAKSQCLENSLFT
As to the kind of experiment: Competitive activity-based protein profiling (cABPP) of GUSB in platelet lysate. In kind it is biochemical. The settings on record: cABPP with ABP VB-A69 100 nM, pH 5.0, 1 h preincubation at 37°C. The source says:
(§11) We next examined whether the synthetic 1-N-iminosugars could inhibit HPSE and human β-glucuronidase. To assess the potency of these inhibitors, we used a competitive activity-based protein profiling (cABPP) assay, that measures the ability of the inhibitor to reduce fluorescent labeling of an enzyme by a fluorescent pan-β-glucuronidase activity-based probe (ABP).[16],[34] Using this cABPP assay, we can simultaneously monitor the inhibition of HPSE and GUSB that are both present in platelet lysates.[6],[29] […] The IC50’s determined for HPSE were greater than that observed for GUSB, which is anticipated for monomer-like inhibitors acting on multisubsite endo-acting enzymes. […] However, the trend that inhibition was improved with the removal of the 3-geminal diol was maintained for both GUSB and HPSE.
(§12) Figure 3 Competitive ABPP of platelet lysate with synthetic iminosugars. Iminosugars 8–11 inhibit both GusB and HPSE present in human platelet lysate. Quantitated fluorescence plots used to determine IC50 values are available in Figure S7. Full length gel images and replicates are available in Figure S8, and Coomassie stained gels are available in Figure S9.
(§13) Figure S7. Inhibition of HPSE and GusB in human platelet lysates by inhibitors 8, 9, 10 and 11. A […]
(§14) normalized quantitated band intensities for HPSE against inhibitor concentration. […]
(§15) Xray diffraction data were collected at 100 K at beamlines i03, i04 and i04-1 of the Diamond Light Source UK. Reflections were autoprocessed using the XIA2 pipeline7. Complexes were solved by directly refining against their unliganded structures where solved using molecular replacement with PHASER4 (search model PDB accessions 5E98 (HPSE), 3VNY (AcGH79), 3K46 (EcGUSB)). Solved […]
(§16) refinement using COOT8 and REFMAC59 respectively. Ligand coordinates were built using jLigand10.
(§17) Diagrams were generated using PyMOL (Delano Scientific). cABPP Labelling experiments:
(§18) ABP labelling reactions were carried out in McIlvaine buffer (pH 5.0), 300 mM NaCl. Labeling reactions were initiated by the addition of ABP VB-A69 to a final concentration of 100 nM, before incubation for 30 min at 37°C with shaking. Following labeling, samples were denatured by boiling with Laemmli buffer for 5 min and resolved by SDS-PAGE. […]
(§19) For competitive ABPP (cABPP) experiments, platelet lysates were preincubated with inhibitor (or buffer only control) in McIlvaine buffer (pH 5.0), 300 mM NaCl for 1 h at 37°C with shaking. […] For quantitative measurements, fluorescently labeled the band intensities were calculated using Imagequant (Cytiva), and normalized to the corresponding band in the inhibitor free control lane. IC50 concentrations were determined by fitting data to the Hill equation: […]

Data set [5] deals with T4, human heparanase (HPSE) (Homo sapiens, UniProt Q9Y251).
T4 construct: endogenous in cells; host or cells: human platelets (lysate)
T4 sequence (Q9Y251 36-543): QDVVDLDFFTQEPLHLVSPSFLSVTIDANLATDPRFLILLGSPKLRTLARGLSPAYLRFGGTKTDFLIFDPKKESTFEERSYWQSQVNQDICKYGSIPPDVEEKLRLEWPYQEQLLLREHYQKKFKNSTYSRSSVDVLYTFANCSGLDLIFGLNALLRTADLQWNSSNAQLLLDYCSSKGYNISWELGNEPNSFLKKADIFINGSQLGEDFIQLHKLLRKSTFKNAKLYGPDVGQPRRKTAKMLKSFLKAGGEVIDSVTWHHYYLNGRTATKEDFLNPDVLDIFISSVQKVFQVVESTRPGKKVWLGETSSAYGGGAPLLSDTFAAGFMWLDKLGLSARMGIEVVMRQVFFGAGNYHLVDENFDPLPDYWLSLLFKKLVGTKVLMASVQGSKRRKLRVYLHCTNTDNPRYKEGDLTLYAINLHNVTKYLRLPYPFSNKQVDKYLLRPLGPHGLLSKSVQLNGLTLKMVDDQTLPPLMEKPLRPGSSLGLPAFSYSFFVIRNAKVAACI
As to the kind of experiment: Competitive activity-based protein profiling (cABPP) of HPSE in platelet lysate. In kind it is biochemical. The settings on record: cABPP with ABP VB-A69 100 nM, pH 5.0, 1 h preincubation at 37°C.
Source text: as §11, §12, §13, §14, §15, §16, §17, §18, §19

[6] abbreviates: 500 µM MU-GlcUA, 0–400 µM siastatin B, pH 5.0.
Where [7] appears, read: fluorogenic substrate MU-GlcUA, McIllvane buffer pH 5.0, competitive inhibition model, read-out: AcGH79 Ki.

T2 sequence (P05804 whole entry): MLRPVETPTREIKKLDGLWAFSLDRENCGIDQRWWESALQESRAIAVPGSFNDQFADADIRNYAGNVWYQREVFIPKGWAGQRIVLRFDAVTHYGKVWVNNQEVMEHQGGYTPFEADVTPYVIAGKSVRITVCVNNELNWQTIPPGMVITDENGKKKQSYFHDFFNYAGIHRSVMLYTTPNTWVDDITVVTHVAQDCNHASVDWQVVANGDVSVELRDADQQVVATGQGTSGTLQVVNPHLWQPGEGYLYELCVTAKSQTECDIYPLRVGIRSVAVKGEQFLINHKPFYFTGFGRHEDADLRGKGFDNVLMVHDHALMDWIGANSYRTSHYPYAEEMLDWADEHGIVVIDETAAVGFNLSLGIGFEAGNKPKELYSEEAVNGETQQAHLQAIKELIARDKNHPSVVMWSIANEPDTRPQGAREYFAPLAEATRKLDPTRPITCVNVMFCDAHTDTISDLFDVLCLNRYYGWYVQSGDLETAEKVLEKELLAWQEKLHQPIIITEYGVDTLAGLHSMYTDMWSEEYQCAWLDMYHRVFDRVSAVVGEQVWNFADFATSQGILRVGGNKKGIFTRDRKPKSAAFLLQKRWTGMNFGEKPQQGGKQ

Take `CC(=O)N[C@H]1NC[C@H](C(=O)O)[C@H](O)[C@@H]1O` [siastatin B, Siastatin B]: the “inhibition of AcGH79 by HPLC-purified material compared with commercial siastatin B” value in data set [1] (setting [6]) was “inhibited less”. Moreover, in data set [2] (D2O phosphate buffer 50 mM, 300 mM NaCl, pH 5.0, 18 h), the “stability in aqueous buffer (NMR)” value is “no contaminating peaks appeared”. Further, the “stability on prolonged incubation with recombinant human heparanase (1H NMR)” value in data set [2] (heparanase 1.2 μM) is reported as “very minor additional peaks in the 3.2–3.0 range, with no loss in the starting peaks observed”. Moreover, the “inhibition of EcGusB by HPLC-purified material compared with commercial siastatin B” value in data set [3] (setting [6]) is on record as “inhibited less”.
By IC50 is commonly meant the concentration at which inhibition is half-maximal. `O=C(O)[C@H]1CNCC(O)(O)[C@H]1O` [compound 8]: the Ki in data set [1] (setting [7]) was found to be 5.8 ± 0.5 µM; in data set [3] it was 137 ± 3 µM. In addition, the values for the IC50 in data set [4] and in data set [5] were 4 ± 2 µM and 27 ± 3 µM, respectively.
For `O=C(O)[C@H]1CNC[C@@H](O)[C@H]1O` [compound 10, galacturonic acid isofagomine] the same measures were 1.5 ± 0.4 µM, 23 ± 3 µM, 0.7 ± 0.04 µM and 8 ± 1 µM.
Consider `O=C(O)[C@H]1CNC[C@@H](O)[C@@H]1O` [compound 11, glucuronic acid isofagomine], for which the figures for the Ki in data set [1] (setting [7]) and in data set [3] were 0.022 ± 0.003 µM and 1.5 ± 0.3 µM, respectively. Besides, the figures for the IC50 in data set [4] and in data set [5] were 0.6 ± 0.06 µM and 80 ± 20 µM, respectively.
Turning to `O=C(O)[C@H]1CNCC(O)(O)[C@@H]1O` [compound 9], the Ki in data set [1] (MU-GlcUA substrate, read-out: inhibition constant for AcGH79) was found to be 0.52 ± 0.03 µM; in data set [3] it was 28 ± 1 µM. For the same compound, the figures for the IC50 in data set [4] and in data set [5] were 1.7 ± 0.2 µM and 200 ± 80 µM, respectively.
